What was measured:
[1] = target: human AT2R fused to Cb23 (Homo sapiens, UniProt P50052); experiment: Radioligand binding assay, displacement of 125I-[Sar1, Ile8]-Angiotensin II, hAT2R Cb23; conditions: displacement of 125I-[Sar1, Ile8]-Angiotensin II, human AT2R fused to Cb23, HEK-293 cell membrane preparations; read-out: Binding affinity on hAT2R_Cb23 IC50
Summary of the method: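 Membranes from HEK-293 cells expressing human AT2R fused to Cb23 were incubated with 0.05 nM 125I-[Sar1, Ile8]-Angiotensin II in 100 μL buffer (50 mM Tris, 5 mM MgCl2, 1 mM EDTA, 0.1% BSA, pH 7.4) for one hour at 25° C. Ligands were tested as eight-point dose-response curves in duplicate, with C21 and Angiotensin II as references.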

[2] = target: human AT1R (Homo sapiens (Human), UniProt P30556); experiment: Counterscreen radioligand binding assay, displacement of 125I-[Sar1, Ile8]-Angiotensin II, hAT1R WT; conditions: for inhibition at 1 µM / inhibition at 10 µM: 125I-[Sar1, Ile8]-Ang II, semi-quantitative score; for inhibition at 1 µM: compound at 1 μM, read-out: % Displaced radioligand at 1 μM; for inhibition at 10 µM: compound at 10 μM, read-out: % Displaced radioligand at 10 μM; for IC50: HEK-293 cell membranes, read-out: Binding affinity On hAT1R IC50
Sequence of human AT1R (P30556 whole entry): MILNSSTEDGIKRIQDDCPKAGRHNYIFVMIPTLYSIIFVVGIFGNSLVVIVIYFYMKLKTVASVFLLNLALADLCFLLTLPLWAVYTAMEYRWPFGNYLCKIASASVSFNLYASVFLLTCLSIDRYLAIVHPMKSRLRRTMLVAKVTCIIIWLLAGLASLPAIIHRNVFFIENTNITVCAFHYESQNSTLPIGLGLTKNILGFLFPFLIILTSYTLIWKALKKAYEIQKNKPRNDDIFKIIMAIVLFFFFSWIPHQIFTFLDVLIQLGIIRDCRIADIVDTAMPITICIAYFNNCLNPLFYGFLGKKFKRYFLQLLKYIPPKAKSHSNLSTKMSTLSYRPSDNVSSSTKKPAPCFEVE
Summary of the method: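 Compounds displaced 0.05 nM 125I-[Sar1, Ile8]-Ang II from human AT1R in HEK-293 membranes (1 h, 25° C; Tris/MgCl2/EDTA/BSA buffer, pH 7.4). Readout was filtration and scintillation counting, with non-specific binding set by 10 μM [Sar1]-Ang II. Values are % displacement at 1 μM and […], or IC50 from eight-point four-parameter fits.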

Sequence of human AT2R fused to Cb23 (P50052 whole entry, looked up, the tested form may be a part): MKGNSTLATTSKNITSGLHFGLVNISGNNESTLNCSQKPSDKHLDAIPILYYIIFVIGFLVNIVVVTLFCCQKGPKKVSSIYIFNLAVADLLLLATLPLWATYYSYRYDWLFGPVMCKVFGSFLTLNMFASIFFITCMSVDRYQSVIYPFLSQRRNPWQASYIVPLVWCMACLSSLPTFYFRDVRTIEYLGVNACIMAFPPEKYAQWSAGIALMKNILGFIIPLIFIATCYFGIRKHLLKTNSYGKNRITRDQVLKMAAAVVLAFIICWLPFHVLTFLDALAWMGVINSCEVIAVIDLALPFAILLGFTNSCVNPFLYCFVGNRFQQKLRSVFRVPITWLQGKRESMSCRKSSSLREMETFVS

SMILES	IC50 [1]	inhibition at 1 µM [2]	inhibition at 10 µM [2]	IC50 [2]
Cc1cc(CN2CCN(c3cc(CC(C)C)ccc3-c3nn[nH]n3)CC2)on1 [Compound A-89, 5-[[4-[5-isobutyl-2-(2H-tetrazol-5-yl)-phenyl]piperazin-1-yl]methyl]-3-methyl-isoxazole]	9780 nM	< 30%	< 30%	
CC(C)Cc1ccc(-c2nn[nH]n2)c(N2CCN(Cc3cnc4ccccn34)CC2)c1 [Compound A-80, 3-[[4-[5-isobutyl-2-(2H-tetrazol-5-yl)-phenyl]piperazin-1-yl]methyl]imid-azo[1,2-a]pyridine]	222 nM	< 30%	< 30%	
CC(C)Cc1cc(F)c(-c2nn[nH]n2)c(N2CCN(Cc3ncc(Cl)cc3F)CC2)c1 [Compound A-205, 1-[(5-chloro-3-fluoro-2-pyridyl)methyl]-4-[3-fluoro-5-isobutyl-2-(2H-tetrazol-5-yl)phenyl]piperazine]	379 nM	< 30%	< 30%	
Cc1cnc(CN2CCN(c3cc(CC(C)C)ccc3-c3nn[nH]n3)CC2)s1 [Compound A-106, 2-[[4-[5-isobutyl-2-(2H-tetrazol-5-yl)phenyl]piperazin-1-yl]methyl]-5-methyl-thiazole]	35.5 nM	< 30%	< 30%	
CC(C)Cc1ccc(-c2nn[nH]n2)c(N2CCN(Cc3nn(C)c4ccccc34)CC2)c1 [Compound A-81, 3-[[4-[5-isobutyl-2-(2H-tetrazol-5-yl)-phenyl]piperazin-1-yl]methyl]-1-methyl-indazole]	1840 nM	< 30%	< 30%	
c1ccc2sc(CN3CCN(c4cc(C5CC5)cc(C5CC5)c4-c4nn[nH]n4)CC3)nc2c1 [Compound A-129, 2-[[4-[3,5-dicyclo-propyl-2-(2H-tetrazol-5-yl)phen-yl]piperazin-1-yl]-methyl]-1,3-benzo-thiazole]	158 nM	< 30%	< 30%	
COC1CC(Nc2ccc(-c3nn[nH]n3)c(N3CCN(Cc4nc5ccccc5s4)CC3)c2)C1 (stereo not drawn) [Compound A-68, 3-[4-(1,3-benzo-thiazol-2-ylmethyl)-piperazin-1-yl]-N-(3-methoxycyclo-butyl)-4-(2H-tetrazol-5-yl)aniline]	8500 nM	< 30%	< 30%	
Cn1c(CN2CCN(c3cc(C(F)(F)F)ccc3-c3nn[nH]n3)CC2)nc2ccccc21 [Compound A-17, 1-methyl-2-[[4-[2-(2H-tetrazol-5-yl)-5-(trifluoromethyl)-phenyl]piperazin-1-yl]methyl]benzimid-azole]	14300 nM	< 30%	< 30%	
CC(C)Oc1cc(C2CC2)c(-c2nn[nH]n2)c(N2CCN(Cc3nc4ccccc4c(=O)[nH]3)CC2)c1 [Compound A-152]	2870 nM	< 30%	< 30%	
O=c1[nH]c(CN2CCN(c3cc(C4CC4)ccc3-c3nn[nH]n3)CC2)nc2ccccc12 [Compound A-28, 2-[[4-[5-cyclopropyl-2-(2H-tetrazol-5-yl)phenyl]piperazin-1-yl]methyl]-3H-quinazolin-4-one]	3560 nM	< 30%	< 30%	
CCc1cc(C2CC2)cc(N2CCN(Cc3nc4ccccc4s3)CC2)c1-c1nn[nH]n1 [Compound A-128, 2-[[4-[5-cycloprop-yl-3-ethyl-2-(2H-tetrazol-5-yl)phen-yl]piperazin-1-yl]-methyl]-1,3-benzo-thiazole]	2190 nM	30 to 50%	> 50%	18200 nM
Cc1cccnc1CN1CCN(c2cc(CC(C)C)cc(F)c2-c2nn[nH]n2)CC1 [Compound A-203, 1-[3-fluoro-5-isobutyl-2-(2H-tetrazol-5-yl)phen-yl]-4-[(3-methyl-2-pyridyl)methyl]-piperazine]	155 nM	< 30%	< 30%	
CC(C)Cc1cc(F)c(-c2nn[nH]n2)c(N2CCN(C(C)c3ccccn3)[C@@H](C)C2)c1 (stereo partly drawn) [Compound A-218, (2S)-4-[3-fluoro-5-isobutyl-2-(2H-tetrazol-5-yl)phenyl]-2-methyl-1-[1-(2-pyridyl)ethyl]piperazine]	122 nM	< 30%	< 30%	
CC(C)Cc1cc(F)c(-c2nn[nH]n2)c(N2C[C@@H](C)N(Cc3cccnn3)[C@H](C)C2)c1 [Compound A-185, 3-[[(2R,6R)-4-[3-fluoro-5-isobutyl-2-(2H-tetrazol-5-yl)-phenyl]-2,6-dimeth-yl-piperazin-1-yl]-methyl]pyridazine]	69.6 nM	< 30%	< 30%	
CC(C)Cc1ccc(-c2nn[nH]n2)c(N2CC3CN(Cc4cccnn4)CC3C2)c1 (stereo not drawn) [Compound A-232, 5-[5-isobutyl-2-(2H-tetrazol-5-yl)-phenyl]-2-(pyrid-azin-3-ylmethyl)-1,3,3a,4,6,6a-hexahydropyrrolo-[3,4-c]pyrrole]	2670 nM	< 30%	< 30%	
CC(C)Cc1cc(N2CCN(Cc3nc4ccccc4s3)CC2)c(-c2nn[nH]n2)cc1N [Compound A-138, 4-[4-(1,3-benzo-thiazol-2-ylmethyl)-piperazin-1-yl]-2-isobutyl-5-(2H-tetrazol-5-yl)aniline]	4710 nM	< 30%	< 30%	
CCc1ccc(-c2nn[nH]n2)c(N2CCN(Cc3nc4ccccc4s3)CC2)n1 [Compound A-142, 2-[[4-[6-ethyl-3-(2H-tetrazol-5-yl)-2-pyridyl]piperazin-1-yl]methyl]-1,3-benzothiazole]	9110 nM	< 30%	30 to 50%	
Cc1scnc1CN1CCN(c2cc(CC(C)C)ccc2-c2nn[nH]n2)CC1 [Compound A-111, 4-[[4-[5-isobutyl-2-(2H-tetrazol-5-yl)phenyl]piperazin-1-yl]methyl]-5-methyl-thiazole]	5430 nM	< 30%	< 30%	

Continued, values first:

IC50 [1]	inhibition at 1 µM [2]	inhibition at 10 µM [2]	IC50 [2]	SMILES
32.6 nM	< 30%	< 30%		Cc1cc(CC(C)C)cc(N2CCN(Cc3cccnn3)CC2)c1-c1nn[nH]n1 [Compound A-167, 3-[[4-[5-isobutyl-3-methyl-2-(2H-tetrazol-5-yl)phen-yl]piperazin-1-yl]-methyl]pyridazine]
1010 nM	< 30%	< 30%		CC(C)Cc1ccc(-c2nn[nH]n2)c(N2CC(NCc3cccnn3)C2)c1 [Compound A-236, 1-(5-isobutyl-2-(2H-tetrazol-5-yl)-phenyl)-N-(pyrid-azin-3-ylmethyl)-azetidin-3-amine]
293 nM	< 30%	< 30%		CC(C)Oc1cc(C2CC2)c(-c2nn[nH]n2)c(N2CCN(Cc3nc4ccccc4s3)CC2)c1 [Compound A-122, 2-[[4-[3-cycloprop-yl-5-isopropoxy-2-(2H-tetrazol-5-yl)-phenyl]piperazin-1-yl]methyl]-1,3-benzothiazole]
34100 nM	< 30%	< 30%	49900 nM	c1ccc(N2CCN(Cc3nc4ccccc4s3)CC2)c(-c2nn[nH]n2)c1 [Compound A-05, 2-[[4-[2-(2H-tetrazol-5-yl)phen-yl]piperazin-1-yl]-methyl]-1,3-benzo-thiazole]
3520 nM	< 30%	< 30%		CCNc1cc(-c2nn[nH]n2)c(N2CCN(Cc3cccnn3)CC2)cc1CC(C)C [Compound A-172, N-ethyl-2-isobutyl-4-[4-(pyridazin-3-ylmethyl)piperazin-1-yl]-5-(2H-tetrazol-5-yl)aniline]
1790 nM	< 30%	< 30%		CC(C)c1ccc(-c2nn[nH]n2)c(N2CCN(Cc3nc4ccccc4s3)CC2)c1 [Compound A-46]
2000 nM	< 30%	< 30%		CC(C)Cc1ccc(-c2nn[nH]n2)c(N2CCN(Cc3cncn3C)CC2)c1 [Compound A-105, 1-[5-isobutyl-2-(2H-tetrazol-5-yl)phenyl]-4-[(3-methylimidazol-4-yl)methyl]piperazine]
1080 nM	< 30%	< 30%		CC(C)Cc1cc(F)c(-c2nn[nH]n2)c(N2CCN(Cc3ncc(F)cc3Cl)CC2)c1 [Compound A-206, 1-[(3-chloro-5-fluoro-2-pyridyl)-methyl]-4-[3-fluoro-5-isobutyl-2-(2H-tetrazol-5-yl)phen-yl]piperazine]
368 nM	< 30%	30 to 50%	18900 nM	CC(C)Cc1cc(F)c(-c2nn[nH]n2)c(N2CCCN(Cc3cccnn3)CC2)c1 [Compound A-231, 1-[3-fluoro-5-isobutyl-2-(2H-tetrazol-5-yl)phenyl]-4-(pyridazin-3-ylmethyl)-1,4-diazepane]
1070 nM	< 30%	< 30%		c1ccc2sc(CN3CCN(c4cc(C5CC5)ccc4-c4nn[nH]n4)CC3)nc2c1 [Compound A-47, 2-[[4-[5-cycloprop-yl-2-(2H-tetrazol-5-yl)phenyl]piperazin-1-yl]methyl]-1,3-benzothiazole]

From patent publication US20240368133A1, “Compounds for the Treatment of Pain, in Particular, Neuropathic Pain, and/or Other Diseases or Disorders that are Associated with AT2R and/or AT2R Mediated Signaling” (Confo Therapeutics N.V., priority 2021, published 2024)
